Assay results taken from article PMC11783601, “Analogue-Sensitive Inhibition of Histone Demethylases Uncovers Member-Specific Function in Ribosomal Protein Synthesis” (Journal of the American Chemical Society, 2025).
Entries after “also recorded” stand apart in the source; their conditions may differ. Where two headings read alike, the source gives them in different places.

Experiments:
[1] = system: 47S rRNA precursor in HEK293T cells; test: Fluorescence in situ hybridization (FISH) of 47S precursor rRNA; type: cell-based, human; conditions: HEK293T cells expressing F185A
Description: We next examined the mechanistic link between KDM4A-mediated promoter demethylation and rRNA upregulation (Figure 7A). To confirm that KDM4A specifically stimulates rRNA synthesis, we performed fluorescence in situ hybridization (FISH) using a fluoresceine-attached short DNA complementary to the 47S rRNA precursor. Overexpression of wild type KDM4A and its as variant indeed led to increased expression of the precursor rRNA compared to that of the control vector (Figure 7B,C).
(Sigma B2883-25MG) for 30 seconds, washed with PBS and finally adhered to a slide with gelvatol. The cells were imaged at University of Pittsburgh Center for Biological Imaging on an Olympus Fluoview 1000 II, grant number 1S10OD019973-01 using excitation and emission wavelengths corresponding to that of Rhodamine. Images were analyzed on ImageJ open-source software and NIS elements software.
17. Analysis of rRNA expression in HEK293T cells using fluorescence in-situ hybridization HEK293-T cells (ATCC CRL-1573) were grown in a 24 well plate (Corning) on poly-D-lysine (Gibco A3890401) treated glass coverslips (ThermoScientific 12-545-81P) overnight and transfected the next day with 500 ng KDM4A WT/F185A or Empty Vector (EV) equivalent using 1:2 ug of Thermo Turbofect (FERR0531). […] Images were analyzed on ImageJ open-source software and NIS elements software. […]

KDM4E-F186A = molecular target: T1, KDM4E-F186A (Homo sapiens, UniProt B2RXH2, F186A); test: MALDI-MS demethylase assay on H3K9me3 peptide; type: biochemical
T1 construct: we recombinantly expressed the catalytic domains of 12 wild type dioxygenases, in addition to KDM4A-E; 6xHis (N); host or cells: E. coli BL21 (DE3)
Description: (§1) We next tested the inhibitory potential of 6 against these proteins using H3K9me3 peptide substrate and analyzed it by MALDI-MS. […] We subsequently examined the ability of asKDM4 variants to demethylate full-length histones extracted from mammalian cells. HEK293T cells were cultured in the presence of 10 μM n-octyl IOX1, a broad-spectrum inhibitor of demethylases,[41],[42] to generate a hypermethylated proteome (Figure S19). The extracted histone was incubated with the as variants individually, each with or without 6, and the extent of demethylation was analyzed by Western blot using the H3K9me3-specific antibody. […]
(§2) assay (Biorad) kit with BSA concentrations as a standard. […]
(§3) 8. Demethylase activity of the wild type and mutant KDM4 proteins on peptide substrate To monitor enzymatic activity, a demethylase activity assay was optimized and then observed through MALDI-TOF.7 Each histone demethylase assay sample included either wild type or mutant enzyme (10µM KDM4A, 7.5µM KDM4C, 10µM KDM4D, or 1µM KDM4E), 10 µM peptide, 200 µM 2OG, 50 mM Tris pH 8, […], 0-200µM NOG analogue, and 2 mM L-ascorbic acid with a total assay volume of 10 µL. Fe(II) supplement and L-ascorbic acid […]
(§4) Lastly, the 2OG and peptide were […]
(§5) positive mode and analyzed on Bruker FlexAnalysis software. The percent demethylated peptide […]
(§6) the multiple demethylation events on the peptide. […]

wild type KDM4C = molecular target: T2, wild type KDM4C (Homo sapiens, UniProt Q9H3R0); test: MALDI-MS demethylase assay on H3K9me3 peptide; type: biochemical
T2 construct: 6xHis-tagged human KDM4C catalytic domain construct; 6xHis (N); made in house; host or cells: E. coli BL21 [DE3] star
Description: as §1, §2, §3, §4, §5, §6

wild type KDM4D = molecular target: T3, wild type KDM4D (Homo sapiens, UniProt Q6B0I6); test: MALDI-MS demethylase assay on H3K9me3 peptide; type: biochemical
T3 construct: human KDM4B and KDM4D jmjC catalytic domain for bacterial; Strep II (N); made in house; host or cells: E. coli Rosetta [DE3]
Description: as §1, §2, §3, §4, §5, §6

KDM4C-F187A = molecular target: T4, KDM4C-F187A (Homo sapiens, UniProt Q9H3R0, F187A); test: MALDI-MS demethylase assay on H3K9me3 peptide; type: biochemical; conditions: 50 µM (Fig S14)
T4 construct: 6xHis-tagged human KDM4C catalytic domain construct; 6xHis (N); made in house; host or cells: E. coli BL21 [DE3] star
Description: as §1, §2, §3, §4, §5, §6

wild type KDM4E = molecular target: T5, wild type KDM4E (Homo sapiens, UniProt B2RXH2); test: MALDI-MS demethylase assay on H3K9me3 peptide; type: biochemical
T5 construct: we recombinantly expressed the catalytic domains of 12 wild type dioxygenases, in addition to KDM4A-E; 6xHis (N); host or cells: E. coli BL21 (DE3)
Description: as §1, §2, §3, §4, §5, §6

KDM4D-F189A = molecular target: T6, KDM4D-F189A (Homo sapiens, UniProt Q6B0I6, F189A); test: MALDI-MS demethylase assay on H3K9me3 peptide; type: biochemical; conditions: 50 µM (Fig S15)
T6 construct: human KDM4B and KDM4D jmjC catalytic domain for bacterial; Strep II (N); made in house; host or cells: E. coli Rosetta [DE3]
Description: as §1, §2, §3, §4, §5, §6

T3 sequence (Q6B0I6 146-312 limits assumed): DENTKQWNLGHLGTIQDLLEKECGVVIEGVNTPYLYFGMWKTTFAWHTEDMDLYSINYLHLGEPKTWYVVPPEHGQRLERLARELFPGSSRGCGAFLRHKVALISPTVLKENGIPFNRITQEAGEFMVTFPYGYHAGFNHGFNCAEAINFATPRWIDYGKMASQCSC
T2 sequence (Q9H3R0 144-310 limits assumed): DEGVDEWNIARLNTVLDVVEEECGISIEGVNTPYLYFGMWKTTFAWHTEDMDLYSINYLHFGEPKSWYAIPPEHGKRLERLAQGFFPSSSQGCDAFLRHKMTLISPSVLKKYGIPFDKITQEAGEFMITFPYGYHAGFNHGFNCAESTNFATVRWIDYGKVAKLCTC
T4 sequence (Q9H3R0 144-310 F187A limits assumed): as the sequence (Q9H3R0 144-310 limits assumed) above, with F44A counted along it
T6 sequence (Q6B0I6 146-312 F189A limits assumed): as the sequence (Q6B0I6 146-312 limits assumed) above, with F44A counted along it
T1 sequence (B2RXH2 143-309 F186A limits assumed): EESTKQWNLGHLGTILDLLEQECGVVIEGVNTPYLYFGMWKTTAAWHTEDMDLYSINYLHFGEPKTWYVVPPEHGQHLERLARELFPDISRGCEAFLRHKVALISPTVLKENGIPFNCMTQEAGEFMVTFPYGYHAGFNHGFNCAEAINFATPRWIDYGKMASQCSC
T5 sequence (B2RXH2 143-309 limits assumed): as the sequence (B2RXH2 143-309 F186A limits assumed) above, with A44F counted along it

## CC(C)CC(NC(=O)C(=O)OCc1cccc(C(F)(F)F)c1)C(=O)O [6B, L-Leu TFMB-ester NOG]
[1]
  transcription of the 47S precursor rRNA: significantly reduced; also recorded: decreased expression of pre-rRNA

## CC(C)CC(NC(=O)C(=O)O)C(=O)O (centres unmarked) [compound 6, N-oxalyl leucine]
KDM4E-F186A
  inhibition of KDM4E-F186A: significantly inhibited
Wild type KDM4C
  inhibition of wild type KDM4C: fully refractory
Wild type KDM4C; listed as NOG 6
  inhibition of wild type KDM4C: does not inhibit
Wild type KDM4D
  inhibition of wild type KDM4D: fully refractory
Wild type KDM4D; listed as NOG 6
  inhibition of wild type KDM4D: does not inhibit
KDM4C-F187A
  inhibition of KDM4C-F187A: significantly inhibited
KDM4C-F187A; listed as NOG 6
  inhibition of KDM4C-F187A: inhibits the mutant completely
Wild type KDM4E
  inhibition of wild type KDM4E: fully refractory
KDM4D-F189A
  inhibition of KDM4D-F189A: significantly inhibited
KDM4D-F189A; listed as NOG 6
  inhibition of KDM4D-F189A: inhibits the mutant completely
